Reference: BindingDB's records for doi:10.1021/cb9002865 (Vanderbilt University, 2010)

These molecules were tested against Receptor protein serine/threonine kinase (Danio rerio, UniProt B3DJG0) (assay: Kinase assay Dorsalization).
Receptor protein serine/threonine kinase, sequence (B3DJG0 whole entry): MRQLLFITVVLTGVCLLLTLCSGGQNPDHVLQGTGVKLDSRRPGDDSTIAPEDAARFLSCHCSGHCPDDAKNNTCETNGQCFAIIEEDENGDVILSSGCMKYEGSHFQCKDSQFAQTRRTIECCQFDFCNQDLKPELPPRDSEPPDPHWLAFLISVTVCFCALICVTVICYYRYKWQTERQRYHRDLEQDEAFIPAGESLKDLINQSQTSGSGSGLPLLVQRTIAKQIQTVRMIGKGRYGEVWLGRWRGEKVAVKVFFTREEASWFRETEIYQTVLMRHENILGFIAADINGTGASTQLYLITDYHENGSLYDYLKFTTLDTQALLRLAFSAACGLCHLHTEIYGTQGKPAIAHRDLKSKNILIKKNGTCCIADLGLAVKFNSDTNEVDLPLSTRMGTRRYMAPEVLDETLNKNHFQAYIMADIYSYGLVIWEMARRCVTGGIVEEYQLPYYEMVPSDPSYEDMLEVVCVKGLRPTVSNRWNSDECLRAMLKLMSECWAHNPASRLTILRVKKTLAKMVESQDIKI

Row | SMILES | EC100
1 | c1cc(-c2cnn3cc(-c4ccc(OCCN5CCOCC5)cc4)cnc23)ccn1 | 1000 nM
2 | c1ccc2c(-c3cnn4cc(-c5ccc(OCCN6CCOCC6)cc5)cnc34)ccnc2c1 [4-(2-(4-(3-(quinolin-4-yl)pyrazolo[1,5-a]pyrimidin-6-yl)phenoxy)ethyl)morpholine] | 100 nM
3 | CC(C)Oc1ccc(-c2cnc3c(-c4ccnc5ccccc45)cnn3c2)cc1 [4-(6-(4-isopropoxyphenyl)pyrazolo[1,5-a]pyrimidin-3-yl)quinoline] | 200 nM
4 | CN(C)CCCOc1ccc(-c2cnc3c(-c4ccnc5ccccc45)cnn3c2)cc1 [DMH3] | 1000 nM
5 | c1ccc2c(-c3cnn4cc(-c5ccc(N6CCNCC6)cc5)cnc34)ccnc2c1 [LDN-193189] | 3000 nM
6 | COc1ccc(-c2cnc3c(-c4ccccc4)cnn3c2)cc1 [dorsomorphin (6LP)] | > 50000 nM
